Test system: dorsal forearm skin of healthy female Caucasian subjects with mild to moderate photo damage
Test: In vivo biopsy, histology of treated dorsal forearm skin
Set-up: species or system human
Settings: 3 weeks semi-occlusion patch, 2 mg/cm^2, extract 0.33%, retinol 0.05% active
Method: Healthy female Caucasian subjects aged 30-65, with skin type II or III and mild to moderate photo damage, were treated on the dorsal forearm for 3 weeks (3 consecutive rounds of 5×24 hour) under semi-occlusion patches. Test articles including active ingredients, vehicle controls, and retinol were applied in a randomized allocation on 6 sites on each forearm. The application dose was 2 mg/cm^2. After 3 week treatment, a 2 mm punch biopsy was obtained from each treatment site and fixed in 10% buffered formalin. Tissue samples then embedded in paraffin, sectioned (5 μm thickness), and stained for skin markers after re-hydration. […] Retinol at a active concentration of 0.05% was used a positive control. Retinol use at a 0.05% active concentration in the semi-occlusion patch vehicle formulation yielded a visual score of approximately 0.56 out of a 4 point scale in HE staining (measuring hematoxylin and eosin staining, an indication of viable epidermal thickness and health) with 63.6% of the subjects showing an improvement; a visual score of 0.6 out of a 4 point scale in M-TC staining (Masson's trichrome staining, assessing total mature fiber-forming collagen in the dermis—mainly Collagen I, […] and Collagen V) with 51.6% of the subjects showing an improvement; a visual score of 0.52 out of a 4 point scale for pro-Col (measuring new synthesis of Collagen I by skin fibroblasts in the dermis) with 51.6% of the subjects showing an improvement; and a visual score of 0.57 out of a 4 point scale for HA (measuring level of hyaluronic acid in both dermis and epidermis) with 50% of the subjects showing an improvement.

## CC1=C(/C=C/C(C)=C/C=C/C(C)=C/CO)C(C)(C)CCC1 [Retinol]
  subjects showing an improvement, HA: 50%
  subjects showing an improvement, HE staining: 63.6%
  subjects showing an improvement, M-TC staining: 51.6%
  subjects showing an improvement, pro-Col: 51.6%
Out of a 4 point scale
  visual score for HA (level of hyaluronic acid in both dermis and epidermis): 0.57
  visual score for pro-Col (new synthesis of Collagen I by skin fibroblasts in the dermis): 0.52
  visual score in HE staining (viable epidermal thickness and health): approximately 0.56
  visual score in M-TC staining (total mature fiber-forming collagen in the dermis): 0.6

Reference: patent US20150359731A1, “PHYLLANTHUS ACIDUS EXTRACTS AND METHODS OF USE” (AVON PRODUCTS, INC, priority 2013, published 2015)
